Source: US20240336604A1 (THE UNITED STATES OF AMERICA, AS REPRESENTED BY THE …, priority 2021, published 2024)
pIC50: −log10 of the molar value. “And” between values parts separate entries of the source, which are not always exact repeats. Equal entries are not always repeated.

Tests used:
[1] = target: T1, D3 DAR (Homo sapiens, UniProt P35462); assay: Functional curve-shift assays using the DiscoverX β-arrestin recruitment assay; assay type: cell-based; design: host or cells: CHO; conditions: for mode of antagonism in curve-shift assays: versus agonist (dopamine, pramipexole); for pIC50: agonist dopamine, read-out: Functional IC50 for decreasing the Emax of dopamine
T1 sequence (P35462 whole entry): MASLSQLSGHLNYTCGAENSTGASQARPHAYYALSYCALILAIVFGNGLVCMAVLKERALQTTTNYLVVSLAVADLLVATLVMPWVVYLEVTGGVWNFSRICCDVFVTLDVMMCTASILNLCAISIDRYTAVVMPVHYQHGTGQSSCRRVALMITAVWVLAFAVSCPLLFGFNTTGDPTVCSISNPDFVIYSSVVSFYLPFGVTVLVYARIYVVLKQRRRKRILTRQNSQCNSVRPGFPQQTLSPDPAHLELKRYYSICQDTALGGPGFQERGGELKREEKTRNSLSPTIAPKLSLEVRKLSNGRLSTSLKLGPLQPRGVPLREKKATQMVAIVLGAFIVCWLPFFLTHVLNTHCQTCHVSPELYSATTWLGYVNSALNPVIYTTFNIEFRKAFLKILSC
Text: To further assess the mechanism of action of Cmp. […] 1 (FIGS. 4B and 4D). […] Average curves are shown (mean±SEM from at least 3 experiments each performed in triplicate). […] In contrast, increasing concentrations of Cmp.
1. FIG. 6A-C panels show concentration-response curves of dopamine in the absence or presence of increasing concentrations of compound. Cmp. […] 18 (FIG. 6A), Cmp. 5 (FIG. 6B), and Cmp. 17 (FIG. 6C), respectively. Average curves are shown (mean±SEM from at least 3 experiments, each performed in triplicate).
(§1) A D3 DAR β-arrestin cell line from DiscoverX (Fremont, CA) was used as described in the protocol below (Table 2). A CHO cell line engineered to overexpress the D3 DAR fused with a small 42-amino acid fragment of β-galactosidase called ProLink™ and a fusion protein consisting of β-arrestin and a larger N-terminal deletion mutant of β-galactosidase was used (DiscoverX catalogue number 93-0579C2). When the D3 DAR is activated by dopamine, it stimulates binding of β-arrestin to ProLink-tagged D3 DARs, and the two complementary parts of β-galactosidase form a functional enzyme. When substrate (PathHunter® Detection reagent, DiscoverX 93-0001) is added, β-galactosidase hydrolyzes it and generates a chemiluminescent signal.

[2] = target: D2 DAR (Homo sapiens, UniProt P14416); assay: DiscoverX D2 DAR β-arrestin recruitment assay; assay type: cell-based; design: host or cells: CHO; conditions: for antagonism of dopamine activation of the D2 DAR: DiscoverX β-arrestin assay, FIG. 2B; for D2 DAR Imax / pIC50: EC80 concentration of DA (1 μM)
D2 DAR, sequence (P14416 whole entry, the tested form may be a part): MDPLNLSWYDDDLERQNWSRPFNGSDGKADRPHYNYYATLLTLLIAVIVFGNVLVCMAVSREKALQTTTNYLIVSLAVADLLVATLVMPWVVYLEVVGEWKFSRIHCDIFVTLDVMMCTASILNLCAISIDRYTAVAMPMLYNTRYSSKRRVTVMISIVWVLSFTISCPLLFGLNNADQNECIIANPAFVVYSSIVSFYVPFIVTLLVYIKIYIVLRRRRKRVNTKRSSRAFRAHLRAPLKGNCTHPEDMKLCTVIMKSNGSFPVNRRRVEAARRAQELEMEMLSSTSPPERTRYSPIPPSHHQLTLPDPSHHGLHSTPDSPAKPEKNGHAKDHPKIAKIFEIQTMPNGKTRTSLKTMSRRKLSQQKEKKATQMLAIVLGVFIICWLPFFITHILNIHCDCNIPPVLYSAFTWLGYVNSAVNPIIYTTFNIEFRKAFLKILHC
Text: For a secondary-screen and selectivity assays, DAR PathHunter®-arrestin GPCR cell lines from DiscoverX (Fremont, CA) were used. In the D2 DAR PathHunter®-arrestin GPCR cell line, the D2 DAR is overexpressed and fused with a small 42-amino acid fragment of β-galactosidase called ProLink™ on a CHO cellular background expressing a fusion protein of β-arrestin and a larger N-terminal deletion mutant of β-galactosidase (“enzyme acceptor”). When the D2 DAR is activated by dopamine, it stimulates binding of β-arrestin to the ProLink-tagged DAR and the two complementary parts of β-galactosidase form a functional enzyme. When substrate (PathHunter™ Detection reagent) is added, β-galactosidase hydrolyzes it and generates a chemiluminescent signal.

[3] = target: T1, D3 DAR; assay: [3H]-methylspiperone radioligand binding assay; conditions: single high 40 μM concentration
Experimental: Compounds were tested for their ability to compete with the orthosteric radioligand [^3H]-methylspiperone for binding to the D3 DAR using HEK cells transiently transfected with the D3 DAR as described in the detailed protocol below presented in Table 5. Cells were cultured in Dulbecco's modified Eagle's Medium (Corning, catalogue no. 10-013) containing 10% FBS, 1,000 units/mL Penicillin, […] Streptomycin, 100 mM sodium pyruvate, 1 μg/mL Gentamicin, and […] G418. All cells were maintained at 37° C. in 5% CO2 and 90% humidity. For radioligand binding assays cells were removed mechanically using calcium-free Earle's balanced salt solution (EBSS). Intact cells were collected by centrifugation and then lysed with 5 mM Tris-HCl and 5 mM MgCl2 at pH 7.4. Homogenates were centrifuged at 30,000×g for 30 minutes. The membranes were re-suspended in EBSS (US Biological, catalogue no. E0249-05) pH 7.4 to a concentration of 16 μg/mL. For competition binding studies, membrane preparations were incubated for 90 minutes at room temperature with various concentrations of compound and a single concentration of [^3H]-methylspiperone (Perkin Elmer, NET856) in a reaction volume of […]. Non-specific binding was determined in the presence of 4 μM (+)-butaclamol (Sigma-Aldrich, catalogue no. D033). Bound ligand was separated from unbound by filtration through GF/C filters using a PerkinElmer cell harvester and quantified on a Top-count (PerkinElmer). Ki values were determined using Cheng-Prusoff equation from observed IC50 values and ligand Kd values from separate saturation experiments.

[4] = target: T1, D3 DAR; assay: DiscoverX D3 DAR β-arrestin recruitment assay; assay type: cell-based; design: host or cells: CHO; conditions: for Emax: Imax=maximum inhibition, EC80 DA (30 nM)
Text: as §1

[5] = target: T1, D3 DAR; assay: Go BRET activation assay, D3 DAR; assay type: cell-based; conditions: EC80 DA (30 nM); for Emax: 5 min, read-out: D3 Go BRET Imax
Experimental: Briefly, HEK293T cells transiently expressing either the D2 DAR or D3 DAR and GαoA-Rluc8, untagged-β1, and mVenus-γ2 were harvested with EBSS, plated in 96-well white plates at 20,000 cells/well in DPBS and incubated at RT for 45 min. […] BRET signal was determined by quantifying and calculating the ratio of the light emitted by mVenus (525 nm) over that emitted by RLuc8 (485 nm) using a PHERAstar FSX Microplate Reader (BMG Labtech).

[6] = Mouse plasma and brain pharmacokinetic study; assay type: in vivo; conditions: male CD1 mice, single 40 mg/kg i.p.
Experimental: Mouse Plasma and Brain Tissue Sampling: The pharmacokinetic study was conducted by CRO Pharmaron (Beijing, China). The levels of cmp 17 in mouse plasma and brain tissue samples were assessed as follows. A single IP dose (40 mg/kg) of cmp 17 was administered to male CD1 mice. The formulation consisted of NMP/Solutol/PEG-400/normal saline (v/v/v/v, 10:5:30:55). Plasma and brain samples were collected 0.5 h, 1 h, 2 h, 4 h and 8 h post dose. Brain samples were homogenized at a ratio of 1:3 with PBS (W/V, 1:3). The desired serial concentrations of working solutions were achieved by diluting stock solution of analyte with 50% acetonitrile in water solution. 10 μL of working solutions (0.5, 1, 2, 5, 10, 50, 100, 500, 1000, 10000 ng/mL) were added to 10 μL of the blank CD1 mouse plasma/brain homogenate to achieve calibration standards of 0.5-10000 ng/mL (0.5, 1, 2, 5, 10, 50, 100, 500, 1000, 10000 ng/mL) in a total volume of 20 μL. Five quality control samples at 1 ng/mL, 2 ng/mL, 5 ng/mL, 100 ng/mL and 8000 ng/mL for plasma/brain homogenate were prepared independently of those used for the calibration curves. […] After centrifugation at 4° C., 4700 rpm for 15 min, the supernatant was diluted at a ratio of 1:2 with water, and 10 μL of diluted supernatant was injected into the LC/MS/MS system (SCIEX AB API 4000) for quantitative analysis. […]

[7] = DiscoverX β-arrestin assay, FIG. 1A, 2A, read-out: IC50, inhibition of dopamine-stimulated β-arrestin recruitment to the D3 DAR
[8] = EC80 concentration of DA (30 nM), read-out: D3 DAR IC50

SMILES	mode of antagonism in curve-shift assays [1]	D2 DAR Imax [2]	pIC50 [2]	pIC50 [4, 7]	pIC50 [4, 8]	Emax [4]	pIC50 [1]	Emax [5]	pIC50 [5]	brain penetration [6]	half-life ([6]; mouse, in vivo, ip)	antagonism of dopamine activation of the D2 DAR [2]	inhibition of [3H]-methylspiperone binding to the D3 DAR [3]
CCN1CCCC1CNC(=O)c1cc(S(N)(=O)=O)ccc1OC (centres unmarked) [sulpiride, reference compound]	behaves in a competitive manner												
Cc1cccc(CNC(=O)c2sc(=O)n(Cc3c(C)cccc3C)c2C)c1 [Cmp. 26]		NA (“NA” indicates not active)	< 4.00	~4.52	4.30 to 5.00	80 to 100%						lacks ability to antagonize dopamine activation	neither compound exhibited measurable ability to inhibit the binding
Cc1[nH]c(C)c(S(=O)(=O)Nc2ccc(C(F)(F)F)c(Br)c2)c1C(=O)N1CCCC1 [Cmp. 18]	noncompetitive antagonism	NA (“NA” indicates not active)	< 4.00		> 5.00	80 to 100%	5.44	80 to 100%	< 4.30				
Cc1[nH]c(C)c(S(=O)(=O)Nc2ccc(C(F)(F)F)c(Cl)c2)c1C(=O)N1CCCC1 [Cmp. 5]	noncompetitive antagonism	NA (“NA” indicates not active)	< 4.00		> 5.00	80 to 100%	5.64	80 to 100%	5.00 to 6.00				

Continued, in another order:

mode of antagonism in curve-shift assays [1]	D2 DAR Imax [2]	pIC50 [2]	pIC50 [4, 7]	pIC50 [4, 8]	Emax [4]	pIC50 [1]	Emax [5]	pIC50 [5]	brain penetration [6]	half-life ([6]; mouse, in vivo, ip)	SMILES	antagonism of dopamine activation of the D2 DAR [2]	inhibition of [3H]-methylspiperone binding to the D3 DAR [3]
	NA (“NA” indicates not active)	< 4.00	~4.89 and ~4.82	4.30 to 5.00	80 to 100%			< 4.30			CCOC(=O)C1=NOC2(C1)C(=O)Nc1ccc(OC(F)(F)F)cc12 (racemic) [Cmp. 25, Ethyl 2-oxo-5-(trifluoromethoxy)-4′H-spiro[indoline-3,5′-isoxazole]-3′-carboxylate]	lacks ability to antagonize dopamine activation	neither compound exhibited measurable ability to inhibit the binding
noncompetitive antagonism	NA (“NA” indicates not active)	< 4.00		> 5.00	80 to 100%	5.77	> 100%		brain penetrant	~4 h	Cc1[nH]c(C)c(S(=O)(=O)Nc2ccc(C(F)(F)F)c(Cl)c2)c1C(=O)N1CCC(F)(F)C1 [Cmp. 17, N-(3-chloro-4-(trifluoromethyl)phenyl)-4-(3,3-difluoropyrrolidine-1-carbonyl)-2,5-dimethyl-1H-pyrrole-3-sulfonamide]		
